Consider 5 compounds from patent publication US4440769A, “2-(4-Phenylalkanoylpiperazin-1-yl) quinazoline compounds, pharmaceutical compositions and method of producing α1 antagonistic activity” (Abbott Laboratories, priority 1983, dated 1984).

Assay [1] relates to α1-adrenergic receptor. The following applies: Federation Proceedings, Vol. 41, No. 5, Abst. No. 7064; cited from earlier work.
The test system of assay [2] is α1-adrenergic receptor. The assay is described as follows: α1-adrenergic receptor selectivity and antagonism (general statements). The following applies: result in words.
For another assay, the system named is α-adrenergic receptor. Put plainly: α-adrenergic receptor antagonistic activity in the isolated rabbit aorta (norepinephrine-induced contraction). Type of assay: cell-based. The following applies: for pA2: norepinephrine agonist, 37±0.5° C., pH 7.4, negative log of concentration requiring doubled norepinephrine. The method, then: Female rabbits, weighing 2 to 5 kg., are sacrificed by cervical dislocation. […] The aorta is placed on cylindrical sticks and cleaned of excess fat and connective tissue, then cut into 2 tissue segments approximately 20 mm in length. Each segment of aorta is then spiraled in strips 3.5 mm wide by turning the stick as a scapel is applied, while leaving a section of 2-3 mm at each end of the aorta section intact. The spiraled tissue is mounted in an aerated (as above) tissue bath of 10 ml. of Kreb's buffer and is attached to a Grass force transducer with an initial applied tension of 2 grams. The tissue is allowed to equilibrate in the tissue bath at a temperature of 37±0.5° C. until the tension on the force transducer stabilizes at 2 grams. A cumulative dose-response curve of contraction for the tissue is determined by contacting the tissue with 10 to 400 ul of the standard agonist norepinephrine in log doses of from 1×10^-8 to 1×10^-3M. […] The degree of antagonistic activity is determined by varying the concentration of the test compound and measuring its pA2 value, i.e., the negative log of the concentration of the test compound required to inhibit the norepinephrine response to the extent that the norepinephrine concentration must be doubled to obtain the maximum standard norepinephrine contractile response of the tissue.

Assay [3] deals with α1-adrenergic receptor. The assay is described as follows: radioligand binding, displacement of [3H] prazosin in rat brain cortex tissue. The settings on record: for Ki: [3H] prazosin, calculated from IC50; for KIα2/KIα1: ratio of KI values, α1 selectivity.
A further assay addresses T1, α2-adrenergic receptor (Rattus norvegicus, UniProt P22909).
T1 sequence (P22909 1-465): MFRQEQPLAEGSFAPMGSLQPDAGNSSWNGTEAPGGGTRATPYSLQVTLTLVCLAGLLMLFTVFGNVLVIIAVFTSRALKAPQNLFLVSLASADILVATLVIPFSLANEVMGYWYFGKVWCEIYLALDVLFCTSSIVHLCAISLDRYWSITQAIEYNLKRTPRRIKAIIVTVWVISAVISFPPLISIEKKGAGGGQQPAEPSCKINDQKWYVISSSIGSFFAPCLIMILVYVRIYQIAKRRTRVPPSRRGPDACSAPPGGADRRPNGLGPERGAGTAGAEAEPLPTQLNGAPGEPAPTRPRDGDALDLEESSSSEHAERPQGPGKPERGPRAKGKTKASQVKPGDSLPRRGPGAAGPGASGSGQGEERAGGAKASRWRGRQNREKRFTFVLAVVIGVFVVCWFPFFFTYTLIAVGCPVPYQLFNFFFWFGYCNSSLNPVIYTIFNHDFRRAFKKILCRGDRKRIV
Put plainly: biochemical. The following applies: rat brain cortex, [3H] yohimbine; calculated from IC50. It counts as binding.

In assay [4] the test system is spontaneously hypertensive rat (Okamoto rats). The assay is described as follows: arterial blood pressure in the spontaneously hypertensive rat (tail cuff). Type of assay: in vivo. The following applies: oral, 30 or 100 mg./kg. The source says:
An occluding cuff, operatively connected to a programmed sphygmomanometer, is placed over the tail of each rat of the group and retained near the tail base. […] A photocell is placed distal to the cuff to detect pulses resulting from the forward motion of blood flow with each heartbeat of the rat. As the pressure in the cuff increases, measurable pulses disappear at the point where the cuff pressure equals the arterial blood pressure. Measurable pulses reappear during deflation at approximately the same pressure, and arterial blood pressure is thereby established by cuff pressure at the point of pulse appearance. The heart rate is determined from the arterial pulse wave. Doses of 30 or 100 mg./kg. of the preferred compound of Example II are administered orally to each rat of the test groups and five interference-free signals are recorded on a Model 7 Grass polygraph for each rat at various measurement periods following administration.

On to `COc1cc2nc(N3CCN(C(=O)c4ccc(N=[N+]=[N-])cc4)CC3)nc(N)c2cc1OC` [2-(4-[4-azido-benzoyl]-piperazin-1-yl)-4-amino-6,7-dimethoxyquinazoline], for which the “α1-adrenergic receptor inhibition upon photolysis” value in the assay with α1-adrenergic receptor [1] is reported as “irreversible non-competitive α1 -adrenergic receptor inhibition”.

As to `COc1cc2nc(N3CCN(C(=O)CCCCc4ccc(N=[N+]=[N-])cc4)CC3)nc(N)c2cc1OC` [4-azidophenyl analog, 4-amino-6,7-dimethoxy-2-[4-(5-[4-azidophenyl]pentanoyl)-1-piperazinyl] quinazoline], in the assay on α1-adrenergic receptor [2], the “selectivity for α1-adrenergic receptor sites” value is “high degree of selectivity for α1 -adrenergic receptor sites” and the α1-antagonism result is “produce α1 -antagonism”.

`COc1cc2nc(N3CCN(C(=O)c4ccc(N)cc4)CC3)nc(N)c2cc1OC` [C, 2-(4-[4-aminobenzoyl]piperazin-1-yl)-4-amino-6,7-dimethoxyquinazoline, reference compound] had a pA2 with α-adrenergic receptor of 7.45. Further, the Ki on α1-adrenergic receptor [3] was 0.017 µM; on α2-adrenergic receptor, 12.4 µM. Moreover, the KIα2/KIα1 in the assay with α1-adrenergic receptor [3] came to 730.9.

Take `COc1cc2nc(N3CCN(C(=O)CCCCc4ccc(N)cc4)CC3)nc(N)c2cc1OC.Cl.Cl` [Example II, 4-amino-6,7-dimethoxy-2-[4-(5-[4-aminophenyl]pentanoyl)-1-piperazinyl] quinazoline dihydrochloride]: the pA2 in the assay on α-adrenergic receptor came to 7.51. Also, the “inhibition of increase in contractile force produced by norepinephrine” value in the assay on α-adrenergic receptor (result in words) is listed as “inhibited”. Also, on α1-adrenergic receptor [3], the Ki was 0.0045 µM and the KIα2/KIα1 is on record as 1,094.5. Also, the Ki at α2-adrenergic receptor is 4.93 µM. Further, the “decrease of arterial blood pressure” value in assay [4] is “decrease the arterial blood pressure of rats of each group”. In the assay with α1-adrenergic receptor [2], the “selectivity for α1-adrenergic receptor sites” value was “high degree of selectivity for α1 -adrenergic receptor sites” and the α1-antagonism entry is “produce α1 -antagonism”.

In the assay with α-adrenergic receptor, `COc1cc2nc(N3CCN(C(=O)c4ccco4)CC3)nc(N)c2cc1OC` [prazosin, reference compound] displayed a pA2 of 8.58.
